Experimental findings from patent US4073935A, “Substituted propanol-(2)-derivatives and their nicotinic acid esters, and process for their preparation, and the use thereof as hypolipemic drugs” (Klinge Pharma GmbH & Co., priority 1974, dated 1978) are described below.

The experiment relates to serum lipids. In words: Lipid-lowering action in normolipemic rats. Format: in vivo. The settings on record: Rattus norvegicus, 72 h, 4 × 100 mg/kg oral over 3 days, male Wistar rats, vs controls, X ± Sx. As to the method:
Lipid-lowering action was tested on groups of 10 male Wistar rats (Ivanovas-Kisslegg), weight 200-220 g, normolipemic, or ordinary ration ("ssniff" complete feed).
The test compounds were taken up in an aqueous solution of 0.25% agar and 0.85% NaCl and administered orally. After administration of 4 × 100 mg/kg over a period of 3 days, the animals were bled by cardiac puncture after privation of […] for 4 hours.^1
^1 H. Enomoto and R. Zschocke, 3rd Int. Symp. Atheroscler, Berlin 1973, Abstr. 238.
Serum lipids were determined with a Technicon autoanalyzer. Total cholesterol (TC) was tested by the Liebermann-Burchard reaction. Quantitative analysis for triglycerides (TG) was performed by Eggstein and Kreutz's enzyme method (Klin. Wschr. 44, 262, 1966), modified for autoanalyzer.
Lipid lowering effect is expressed as percent lowering of total cholesterol and triglycerides compared to controls.

The mark [1] stands for this setting: read-out: % Lowering TC (total cholesterol).
Setting [2] is: read-out: % Lowering TG (triglycerides).

Each structure is given as a SMILES string. Where two headings read alike, the source gives them in different places.

As to `COCCOC(=O)C=Cc1ccc(OCC(O)COc2ccc(C(C)(C)C)cc2)cc1` (stereo not shown) [Compound 51], the inhibition in vivo at 100 mg/kg under setting [1] turned out to be 47.8 ± 10.4% and the inhibition in vivo at 100 mg/kg under setting [2] is 77 ± 7.4%.

On to `O=C(O)CCc1cccc(OCC(O)COc2ccc(Cl)cc2)c1` (stereo not shown) [Compound 58, 3-3'-(2-Carboxyathyl)-phenoxy!-1-(4'-chlorphenoxy)-propanol-(2)], for which the inhibition in vivo at 100 mg/kg is 42.2 ± 5.6% under setting [1] and 71.3 ± 7.6% under setting [2].

For `O=C(O)c1ccc(NCC(O)COc2ccc(Cl)cc2)cc1` (stereo not shown) [Compound 68, 3-(4'-Carboxyphenylamino)-1-(4'-chlorphenoxy)-propanol-(2)], the inhibition in vivo at 100 mg/kg under setting [1] amounted to 15.2 ± 10% and the inhibition in vivo at 100 mg/kg under setting [2] worked out at 54.1 ± 17%.

As to `CC(C)(C)c1ccc(OCC(O)COc2ccc(C=CC(=O)OCCO)cc2)cc1` (stereo not shown) [Compound 50], the inhibition in vivo at 100 mg/kg under setting [1] came out at 49.3 ± 11.7% and the inhibition in vivo at 100 mg/kg under setting [2] stood at 84.2 ± 5.4%.

Turning to `O=C(OCCO)c1ccc(OCC(O)CNc2ccc(Cl)cc2)cc1` (stereo not shown) [Compound 52], the inhibition in vivo at 100 mg/kg under setting [1] came to 50 ± 10% and the inhibition in vivo at 100 mg/kg under setting [2] worked out at 53.9 ± 13.3%.

Consider `CCCOC(=O)c1ccc(OCC(O)COc2ccc(Cl)cc2)cc1` (stereo not shown) [Compound 4], for which the inhibition in vivo at 100 mg/kg by setting is: under setting [1], 53 ± 7.5%; under setting [2], 74.2 ± 13.4%.

Regarding `CCOC(=O)c1ccc(NCC(O)COc2ccc(Cl)cc2)cc1` (stereo not shown) [Compound 31], the inhibition in vivo at 100 mg/kg turned out to be 33.3 ± 17.6% under setting [1] and 63.6 ± 18.5% under setting [2].

For the compound `O=C(O)CCc1ccc(OCC(O)COc2ccc(Cl)cc2)cc1` (stereo not shown) [Compound 56, 3-4'-(2-Carboxyathyl)-phenoxy!-1-(4'-chlorphenoxy)-propanol-(2)], the inhibition in vivo at 100 mg/kg is, setting by setting: under setting [1], 48 ± 12.9%; under setting [2], 76.7 ± 7.7%.

With `CC(C)OC(=O)C=Cc1ccc(OCC(O)COc2ccc(Cl)cc2)cc1` (stereo not shown) [Compound 13], the inhibition in vivo at 100 mg/kg reads like this: under setting [1], 50.4 ± 7.3%; under setting [2], 79.7 ± 10.4%.

For `O=C(C=Cc1ccc(OCC(O)COc2ccc(Cl)cc2)cc1)NO` (stereo not shown) [Compound 106, 3-(4'-(2-(n-hydroxycarbamoyl)-vinyl)-phenoxy)-1-(4'-chlorophenoxy)-propanol-(2)], the inhibition in vivo at 100 mg/kg by setting is: under setting [1], 43.9 ± 19.4%; under setting [2], 64.2 ± 17.1%.

In the case of `O=C(O)C=Cc1ccc(OCC(O)CSc2ccc(Cl)cc2)cc1` (stereo not shown) [Compound 77, 3-4'-(2-Carboxyvinyl)-phenoxy!-1-(4'-chlorphenylmercapto)-propanol-(2)], the inhibition in vivo at 100 mg/kg runs as follows: under setting [1], 55.5 ± 12.7%; under setting [2], 77.8 ± 12%.

For `COC(=O)c1ccc(OCC(O)CNc2ccc(C(C)(C)C)cc2)cc1` (stereo not shown) [Compound 35], the inhibition in vivo at 100 mg/kg worked out at 51.9 ± 9.3% under setting [1] and 79.2 ± 9% under setting [2].

With `CC(C)OC(=O)c1cccc(OCC(O)COc2ccc(Cl)cc2)c1` (stereo not shown) [Compound 7], the inhibition in vivo at 100 mg/kg under setting [1] is 32.1 ± 18.1% and the inhibition in vivo at 100 mg/kg under setting [2] was found to be 73.2 ± 8.3%.

In the case of `CC(C)OC(=O)c1ccc(OCC(O)COc2ccc(Cl)cc2)cc1` (stereo not shown) [Compound 5], the inhibition in vivo at 100 mg/kg by setting is: under setting [1], 15.5 ± 14.7%; under setting [2], 54.6 ± 28.3%.

For `O=C(CCc1ccc(OCC(O)COc2ccc(Cl)cc2)cc1)NO` (stereo not shown) [Compound 107], the inhibition in vivo at 100 mg/kg was 49.6 ± 13.3% under setting [1] and 84.8 ± 4.1% under setting [2].

`O=C(O)c1cccc(OCC(O)COc2ccc(Cl)cc2)c1` (stereo not shown) [Compound 54, 3-(3'-Carboxyphenoxy)-1-(4'-chlorphenoxy)-propanol-(2)]: the inhibition in vivo at 100 mg/kg is, setting by setting: under setting [1], 28.7 ± 10.2%; under setting [2], 80 ± 11.4%.

Regarding `CC(C)(C)c1ccc(OCC(O)COc2ccc(C(=O)O)cc2)cc1` (stereo not shown) [Compound 59, 3-(4'-Carboxyphenoxy)-1-(4'-t-butylphenoxy)-propanol-(2)], the inhibition in vivo at 100 mg/kg was 45.7 ± 14.3% under setting [1] and 66.7 ± 8.1% under setting [2].

On to `O=C(O)c1ccc(OCC(O)CNc2ccc(Cl)cc2)cc1` (stereo not shown) [Compound 65, 3-(4'-Carboxyphenoxy)-1-(4'-chlorphenylamino)-propanol-(2)], for which the inhibition in vivo at 100 mg/kg under setting [1] is 20.9 ± 13.7% and the inhibition in vivo at 100 mg/kg under setting [2] came to 72.9 ± 11.3%.

`COC(=O)c1cccc(OCC(O)COc2ccc(Cl)cc2)c1` (stereo not shown) [Compound 6]: the inhibition in vivo at 100 mg/kg reads like this: under setting [1], 28.5 ± 10%; under setting [2], 78.1 ± 11.2%.

As for `COC(=O)c1ccc(OCC(O)COc2ccc(Cl)cc2)cc1` (stereo not shown) [Compound 1, 3-(4'-methoxycarbonylphenoxy)-1-(4'-chlorophenoxy)propanol-(2)], the inhibition in vivo at 100 mg/kg by setting is: under setting [1], 47.9 ± 10.2%; under setting [2], 63.8 ± 17.2%.

As for `CC(C)OC(=O)c1ccc(OCC(O)CNc2ccc(Cl)cc2)cc1` (stereo not shown) [Compound 28], the inhibition in vivo at 100 mg/kg reads like this: under setting [1], 30.8 ± 9.7%; under setting [2], 64.6 ± 16.9%.

For the compound `O=C(OCCCl)c1ccc(OCC(O)COc2ccc(Cl)cc2)cc1` (stereo not shown) [Compound 82], the inhibition in vivo at 100 mg/kg under setting [1] was 53.9 ± 9.1% and the inhibition in vivo at 100 mg/kg under setting [2] was 83.8 ± 6%.

For the compound `COC(=O)c1ccc(OCC(O)CNc2ccc(Cl)cc2)cc1` (stereo not shown) [Compound 26, 3-(4'-methoxycarbonylphenoxy)-1-(4'-chlorophenylamino)-propanol-(2)], the inhibition in vivo at 100 mg/kg by setting is: under setting [1], 25.8 ± 23.7%; under setting [2], 81 ± 5.2%.

For `COCCOC(=O)C=Cc1ccc(OCC(O)COc2ccc(Cl)cc2)cc1` (stereo not shown) [Compound 47], the inhibition in vivo at 100 mg/kg is 44.4 ± 18% under setting [1] and 57.8 ± 10.7% under setting [2].

Regarding `COC(=O)C=Cc1ccc(OCC(O)CSc2ccc(Cl)cc2)cc1` (stereo not shown) [Compound 40, 3-(4'-(2-methoxycarbonylvinyl)-phenoxy)-1-(4'-chlorophenylmercapto)-propanol-(2)], the inhibition in vivo at 100 mg/kg under setting [1] came to 9.6 ± 9.1% and the inhibition in vivo at 100 mg/kg under setting [2] worked out at 59.4 ± 14.7%.

`COC(OC)c1ccc(OCC(O)COc2ccc(C(C)(C)C)cc2)cc1` (stereo not shown) [Compound 113]: the inhibition in vivo at 100 mg/kg under setting [1] is 44.4 ± 11.2% and the inhibition in vivo at 100 mg/kg under setting [2] amounted to 84 ± 8.8%.

For the compound `O=C(O)C=Cc1ccc(OCC(O)COc2ccc(Cl)cc2)cc1` (stereo not shown) [Compound 55, 3-(4'-(2-carboxyvinyl)-phenoxy)-1-(4'-chlorophenoxy)propanol-(2)], the inhibition in vivo at 100 mg/kg under setting [1] came to 45.4 ± 9.2% and the inhibition in vivo at 100 mg/kg under setting [2] stood at 49.9 ± 23.7%.

With `COC(=O)C=Cc1ccc(OCC(O)COc2ccc(Cl)cc2)cc1` (stereo not shown) [Compound 8, 3-(4'-(2-methoxycarbonylvinyl)-phenoxy)-1-(4'-chlorophenoxy)-propanol-(2)], the inhibition in vivo at 100 mg/kg runs as follows: under setting [1], 17.3 ± 26%; under setting [2], 52.1 ± 7.7%.

With `CC(C)(C)c1ccc(OCC(O)CNc2cccc(C(=O)O)c2)cc1` (stereo not shown) [Compound 71, 3-(3'-Carboxyphenylamino)-1-(4'-t-butylphenoxy)-propanol-(2)], the inhibition in vivo at 100 mg/kg is 28.9 ± 9.5% under setting [1] and 58.4 ± 15.5% under setting [2].

On to `CC(C)OC(=O)c1ccc(OCC(COc2ccc(Cl)cc2)OC(=O)c2cccnc2)cc1` (stereo not shown) [Compound 96], for which the inhibition in vivo at 100 mg/kg reads like this: under setting [1], 36.8 ± 14.3%; under setting [2], 74 ± 4.8%.

Take `COC(=O)c1ccc(OCC(COc2ccc(Cl)cc2)OC(=O)c2cccnc2)cc1` (stereo not shown) [Compound 95, 3-(4'-methoxycarbonylphenoxy)-1-(4'-chlorophenoxy)-propanol-(2) nicotinic acid ester]: the inhibition in vivo at 100 mg/kg was found to be 38.3 ± 15.4% under setting [1] and 63.8 ± 14.8% under setting [2].

With `COC(=O)c1ccc(OCC(O)CSc2ccc(C(C)(C)C)cc2)cc1` (stereo not shown) [Compound 43], the inhibition in vivo at 100 mg/kg under setting [1] was found to be 37.2 ± 13.8% and the inhibition in vivo at 100 mg/kg under setting [2] came to 71 ± 12.5%.

Turning to `COC(=O)c1ccc(OCC(CSc2ccc(Cl)cc2)OC(=O)c2cccnc2)cc1` (stereo not shown) [Compound 104], the inhibition in vivo at 100 mg/kg runs as follows: under setting [1], 48 ± 7.9%; under setting [2], 81.1 ± 5.6%.

With `COC(=O)C=Cc1ccc(OCC(O)CNc2ccc(Cl)cc2)cc1` (stereo not shown) [Compound 29], the inhibition in vivo at 100 mg/kg under setting [1] turned out to be 12.7 ± 12.5% and the inhibition in vivo at 100 mg/kg under setting [2] was 62.3 ± 10.7%.

`CC(C)(C)c1ccc(NCC(O)COc2ccc(C=CC(=O)O)cc2)cc1` (stereo not shown) [Compound 74, 3-4'-(2-Carboxyvinyl)-phenoxy!-1-(4'-t-butylphenylamino)-propanol-(2)]: the inhibition in vivo at 100 mg/kg was determined as 50.7 ± 6.4% under setting [1] and 69.7 ± 9.6% under setting [2].

As for `O=C(NO)c1ccc(OCC(O)COc2ccc(Cl)cc2)cc1` (stereo not shown) [Compound 105], the inhibition in vivo at 100 mg/kg by setting is: under setting [1], 29.8 ± 14.3%; under setting [2], 53.2 ± 11.2%.

On to `O=C(O)C=Cc1cccc(OCC(O)COc2ccc(Cl)cc2)c1` (stereo not shown) [Compound 57, 3-3'-(2-Carboxyvinyl)-phenoxy!-1-(4'-chlorphenoxy)-propanol-(2)], for which the inhibition in vivo at 100 mg/kg is, setting by setting: under setting [1], 28.4 ± 11.1%; under setting [2], 61.8 ± 10.9%.

For the compound `CC(C)(C)c1ccc(OCC(O)CNc2ccc(C(=O)O)cc2)cc1` (stereo not shown) [Compound 70, 3-(4'-Carboxyphenylamino)-1-(4'-t-butylphenoxy)-propanol-(2)], the inhibition in vivo at 100 mg/kg runs as follows: under setting [1], 33.3 ± 12.2%; under setting [2], 78.1 ± 10.4%.

Take `CN(C)CCOC(=O)c1ccc(OCC(O)COc2ccc(Cl)cc2)cc1` (stereo not shown) [Compound 83]: the inhibition in vivo at 100 mg/kg runs as follows: under setting [1], 46.2 ± 15.4%; under setting [2], 72.5 ± 11.1%.

Consider `COC(=O)CCc1ccc(OCC(O)COc2ccc(C(C)(C)C)cc2)cc1` (stereo not shown) [Compound 22, 3-(4'-(2-methoxycarbonylethyl)-phenoxy)-1-(4'-tert.-butylphenoxy)-propanol-(2)], for which the inhibition in vivo at 100 mg/kg is, setting by setting: under setting [1], 46.9 ± 11.4%; under setting [2], 79 ± 10.7%.

`CC(C)(C)c1ccc(OCC(O)COc2ccc(C3OCCO3)cc2)cc1` (stereo not shown) [Compound 114]: the inhibition in vivo at 100 mg/kg under setting [1] was 67.9 ± 6.6% and the inhibition in vivo at 100 mg/kg under setting [2] was determined as 91.6 ± 4.8%.
